Our source for the viability, T/C values is PubChem BioAssay AID1963831 (Molecular Pharmacology Branch, DTP, NCI, 2024).
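Also: spheroids exposed to compounds for seven days; 100% = DMSO vehicle control viability.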

The first test has as its system 889142-216-R-J1-PDC complex spheroid viability. Description: Anticancer human tumor 889142-216-R-J1-PDC patient-derived bladder carcinoma cell line growth inhibition [POLQ]. The following applies: second compound 3.16 µM; first compound 0.1 µM; active compounds read low. A digest of the protocol: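 PDC + HUVEC + MSC complex spheroids; POLQ inhibitors ± partner drugs; top conc. at/near clinical Cmax, else 10 microM (SN-38 1 microM), half-log dilutions; 37 degrees C, 5% CO2.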
Consider `O=C(Nc1ccc(O)c(NS(=O)(=O)c2ccc(F)cc2)c1)c1ccc(-c2ccccc2)cc1` + COC1C(OC(N)=O)C(O)C(Oc2ccc3c(O)c(NC(=O)c4ccc(O)c(CC=C(C)C)c4)c(=O)oc3c2C)OC1(C)C, for which the viability, T/C was 108%.

`COc1cc(C2c3cc4c(cc3C(OC3OC5COC(C)OC5C(O)C3O)C3COC(=O)C23)OCO4)cc(OC)c1O` (configuration not stated) + Cc1cccc(N(C)C(=O)C2C(O)CCN2c2nc(C)cc(C(F)(F)F)c2C#N)c1: the viability, T/C is 81.2%.

The same test, now with this note: second compound 3.16 µM; first compound 0.316 µM; active compounds read low.
For `CC1COCCN1c1cc(C2(O)CC3CCC(C2)O3)c2cnn(-c3ccn[nH]3)c2n1` (configuration not stated) + COC1C(OC(N)=O)C(O)C(Oc2ccc3c(O)c(NC(=O)c4ccc(O)c(CC=C(C)C)c4)c(=O)oc3c2C)OC1(C)C, the viability, T/C is 40.5%.

For the compound `O=C(Nc1ccc(O)c(NS(=O)(=O)c2ccc(F)cc2)c1)c1ccc(-c2ccccc2)cc1` + COC1C(OC(N)=O)C(O)C(Oc2ccc3c(O)c(NC(=O)c4ccc(O)c(CC=C(C)C)c4)c(=O)oc3c2C)OC1(C)C, the viability, T/C was 96.2%.

Consider `COc1cc(C2c3cc4c(cc3C(OC3OC5COC(C)OC5C(O)C3O)C3COC(=O)C23)OCO4)cc(OC)c1O` (configuration not stated) + Cc1cccc(N(C)C(=O)C2C(O)CCN2c2nc(C)cc(C(F)(F)F)c2C#N)c1, for which the viability, T/C is 64.2%.

Still in this test, the particulars now being: second compound 3.16 µM; first compound 1 µM; active compounds read low.
With `CC1COCCN1c1cc(C2(O)CC3CCC(C2)O3)c2cnn(-c3ccn[nH]3)c2n1` (configuration not stated) + COC1C(OC(N)=O)C(O)C(Oc2ccc3c(O)c(NC(=O)c4ccc(O)c(CC=C(C)C)c4)c(=O)oc3c2C)OC1(C)C, the viability, T/C was 39.2%.

Regarding `O=C(Nc1ccc(O)c(NS(=O)(=O)c2ccc(F)cc2)c1)c1ccc(-c2ccccc2)cc1` + COC1C(OC(N)=O)C(O)C(Oc2ccc3c(O)c(NC(=O)c4ccc(O)c(CC=C(C)C)c4)c(=O)oc3c2C)OC1(C)C, the viability, T/C is 117%.

In the case of `COc1cc(C2c3cc4c(cc3C(OC3OC5COC(C)OC5C(O)C3O)C3COC(=O)C23)OCO4)cc(OC)c1O` (configuration not stated) + Cc1cccc(N(C)C(=O)C2C(O)CCN2c2nc(C)cc(C(F)(F)F)c2C#N)c1, the viability, T/C is 62.1%.

Still in this test, the particulars now being: second compound 3.16 µM; first compound 3.16 µM; active compounds read low.
On to `CC1COCCN1c1cc(C2(O)CC3CCC(C2)O3)c2cnn(-c3ccn[nH]3)c2n1` (configuration not stated) + COC1C(OC(N)=O)C(O)C(Oc2ccc3c(O)c(NC(=O)c4ccc(O)c(CC=C(C)C)c4)c(=O)oc3c2C)OC1(C)C, for which the viability, T/C is 25.2%.

As to `O=C(Nc1ccc(O)c(NS(=O)(=O)c2ccc(F)cc2)c1)c1ccc(-c2ccccc2)cc1` + COC1C(OC(N)=O)C(O)C(Oc2ccc3c(O)c(NC(=O)c4ccc(O)c(CC=C(C)C)c4)c(=O)oc3c2C)OC1(C)C, the viability, T/C is 126%.

As to `COc1cc(C2c3cc4c(cc3C(OC3OC5COC(C)OC5C(O)C3O)C3COC(=O)C23)OCO4)cc(OC)c1O` (configuration not stated) + Cc1cccc(N(C)C(=O)C2C(O)CCN2c2nc(C)cc(C(F)(F)F)c2C#N)c1, the viability, T/C is 62.4%.

Still in this test, the particulars now being: second compound 3.16 µM; first compound 10 µM; active compounds read low.
Turning to `CC1COCCN1c1cc(C2(O)CC3CCC(C2)O3)c2cnn(-c3ccn[nH]3)c2n1` (configuration not stated) + COC1C(OC(N)=O)C(O)C(Oc2ccc3c(O)c(NC(=O)c4ccc(O)c(CC=C(C)C)c4)c(=O)oc3c2C)OC1(C)C, the viability, T/C is 14.1%.

For the compound `O=C(Nc1ccc(O)c(NS(=O)(=O)c2ccc(F)cc2)c1)c1ccc(-c2ccccc2)cc1` + COC1C(OC(N)=O)C(O)C(Oc2ccc3c(O)c(NC(=O)c4ccc(O)c(CC=C(C)C)c4)c(=O)oc3c2C)OC1(C)C, the viability, T/C was 73.6%.

As for `COc1cc(C2c3cc4c(cc3C(OC3OC5COC(C)OC5C(O)C3O)C3COC(=O)C23)OCO4)cc(OC)c1O` (configuration not stated) + Cc1cccc(N(C)C(=O)C2C(O)CCN2c2nc(C)cc(C(F)(F)F)c2C#N)c1, the viability, T/C was 52.4%.

The test is the same for the next values; noted with them: second compound 10 µM; first compound 0.0316 µM; active compounds read low.
On to `CC1COCCN1c1cc(C2(O)CC3CCC(C2)O3)c2cnn(-c3ccn[nH]3)c2n1` (configuration not stated) + COC1C(OC(N)=O)C(O)C(Oc2ccc3c(O)c(NC(=O)c4ccc(O)c(CC=C(C)C)c4)c(=O)oc3c2C)OC1(C)C, for which the viability, T/C is 65.2%.

For the compound `O=C(Nc1ccc(O)c(NS(=O)(=O)c2ccc(F)cc2)c1)c1ccc(-c2ccccc2)cc1` + COC1C(OC(N)=O)C(O)C(Oc2ccc3c(O)c(NC(=O)c4ccc(O)c(CC=C(C)C)c4)c(=O)oc3c2C)OC1(C)C, the viability, T/C is 99.8%.

Regarding `COc1cc(C2c3cc4c(cc3C(OC3OC5COC(C)OC5C(O)C3O)C3COC(=O)C23)OCO4)cc(OC)c1O` (configuration not stated) + Cc1cccc(N(C)C(=O)C2C(O)CCN2c2nc(C)cc(C(F)(F)F)c2C#N)c1, the viability, T/C is 77.4%.

The same test, now with this note: second compound 10 µM; first compound 0.1 µM; active compounds read low.
For the compound `CC1COCCN1c1cc(C2(O)CC3CCC(C2)O3)c2cnn(-c3ccn[nH]3)c2n1` (configuration not stated) + COC1C(OC(N)=O)C(O)C(Oc2ccc3c(O)c(NC(=O)c4ccc(O)c(CC=C(C)C)c4)c(=O)oc3c2C)OC1(C)C, the viability, T/C was 43.2%.

Turning to `O=C(Nc1ccc(O)c(NS(=O)(=O)c2ccc(F)cc2)c1)c1ccc(-c2ccccc2)cc1` + COC1C(OC(N)=O)C(O)C(Oc2ccc3c(O)c(NC(=O)c4ccc(O)c(CC=C(C)C)c4)c(=O)oc3c2C)OC1(C)C, the viability, T/C is 103%.

As for `COc1cc(C2c3cc4c(cc3C(OC3OC5COC(C)OC5C(O)C3O)C3COC(=O)C23)OCO4)cc(OC)c1O` (configuration not stated) + Cc1cccc(N(C)C(=O)C2C(O)CCN2c2nc(C)cc(C(F)(F)F)c2C#N)c1, the viability, T/C is 74.1%.

The test is the same for the next values; noted with them: second compound 10 µM; first compound 0.316 µM; active compounds read low.
Consider `CC1COCCN1c1cc(C2(O)CC3CCC(C2)O3)c2cnn(-c3ccn[nH]3)c2n1` (configuration not stated) + COC1C(OC(N)=O)C(O)C(Oc2ccc3c(O)c(NC(=O)c4ccc(O)c(CC=C(C)C)c4)c(=O)oc3c2C)OC1(C)C, for which the viability, T/C was 39.2%.

Turning to `O=C(Nc1ccc(O)c(NS(=O)(=O)c2ccc(F)cc2)c1)c1ccc(-c2ccccc2)cc1` + COC1C(OC(N)=O)C(O)C(Oc2ccc3c(O)c(NC(=O)c4ccc(O)c(CC=C(C)C)c4)c(=O)oc3c2C)OC1(C)C, the viability, T/C is 101%.

Take `COc1cc(C2c3cc4c(cc3C(OC3OC5COC(C)OC5C(O)C3O)C3COC(=O)C23)OCO4)cc(OC)c1O` (configuration not stated) + Cc1cccc(N(C)C(=O)C2C(O)CCN2c2nc(C)cc(C(F)(F)F)c2C#N)c1: the viability, T/C was 61%.

The same test, now with this note: second compound 10 µM; first compound 1 µM; active compounds read low.
As to `CC1COCCN1c1cc(C2(O)CC3CCC(C2)O3)c2cnn(-c3ccn[nH]3)c2n1` (configuration not stated) + COC1C(OC(N)=O)C(O)C(Oc2ccc3c(O)c(NC(=O)c4ccc(O)c(CC=C(C)C)c4)c(=O)oc3c2C)OC1(C)C, the viability, T/C is 30.6%.

Turning to `O=C(Nc1ccc(O)c(NS(=O)(=O)c2ccc(F)cc2)c1)c1ccc(-c2ccccc2)cc1` + COC1C(OC(N)=O)C(O)C(Oc2ccc3c(O)c(NC(=O)c4ccc(O)c(CC=C(C)C)c4)c(=O)oc3c2C)OC1(C)C, the viability, T/C was 118%.

For `COc1cc(C2c3cc4c(cc3C(OC3OC5COC(C)OC5C(O)C3O)C3COC(=O)C23)OCO4)cc(OC)c1O` (configuration not stated) + Cc1cccc(N(C)C(=O)C2C(O)CCN2c2nc(C)cc(C(F)(F)F)c2C#N)c1, the viability, T/C is 61%.

Staying with this test, now noted: second compound 10 µM; first compound 3.16 µM; active compounds read low.
For the compound `CC1COCCN1c1cc(C2(O)CC3CCC(C2)O3)c2cnn(-c3ccn[nH]3)c2n1` (configuration not stated) + COC1C(OC(N)=O)C(O)C(Oc2ccc3c(O)c(NC(=O)c4ccc(O)c(CC=C(C)C)c4)c(=O)oc3c2C)OC1(C)C, the viability, T/C was 30.1%.

As for `O=C(Nc1ccc(O)c(NS(=O)(=O)c2ccc(F)cc2)c1)c1ccc(-c2ccccc2)cc1` + COC1C(OC(N)=O)C(O)C(Oc2ccc3c(O)c(NC(=O)c4ccc(O)c(CC=C(C)C)c4)c(=O)oc3c2C)OC1(C)C, the viability, T/C is 107%.

For the compound `COc1cc(C2c3cc4c(cc3C(OC3OC5COC(C)OC5C(O)C3O)C3COC(=O)C23)OCO4)cc(OC)c1O` (configuration not stated) + Cc1cccc(N(C)C(=O)C2C(O)CCN2c2nc(C)cc(C(F)(F)F)c2C#N)c1, the viability, T/C is 59.8%.

Still in this test, the particulars now being: second compound 10 µM; first compound 10 µM; active compounds read low.
As for `CC1COCCN1c1cc(C2(O)CC3CCC(C2)O3)c2cnn(-c3ccn[nH]3)c2n1` (configuration not stated) + COC1C(OC(N)=O)C(O)C(Oc2ccc3c(O)c(NC(=O)c4ccc(O)c(CC=C(C)C)c4)c(=O)oc3c2C)OC1(C)C, the viability, T/C is 13.9%.

Regarding `O=C(Nc1ccc(O)c(NS(=O)(=O)c2ccc(F)cc2)c1)c1ccc(-c2ccccc2)cc1` + COC1C(OC(N)=O)C(O)C(Oc2ccc3c(O)c(NC(=O)c4ccc(O)c(CC=C(C)C)c4)c(=O)oc3c2C)OC1(C)C, the viability, T/C is 63.7%.

In the case of `COc1cc(C2c3cc4c(cc3C(OC3OC5COC(C)OC5C(O)C3O)C3COC(=O)C23)OCO4)cc(OC)c1O` (configuration not stated) + Cc1cccc(N(C)C(=O)C2C(O)CCN2c2nc(C)cc(C(F)(F)F)c2C#N)c1, the viability, T/C is 40.4%.

One may read the viability, T/C as the result in the treated group divided by that in the control group, in per cent.
